Experimental data from BindingDB's records for doi:10.1002/cbic.200390029 (University of Queensland Brisbane, 2003).

target: T1, Phospholipase A2, membrane associated (Homo sapiens, UniProt P14555); assay: In Vitro Colorimetric Enzyme Assay
T1 sequence (P14555 whole entry): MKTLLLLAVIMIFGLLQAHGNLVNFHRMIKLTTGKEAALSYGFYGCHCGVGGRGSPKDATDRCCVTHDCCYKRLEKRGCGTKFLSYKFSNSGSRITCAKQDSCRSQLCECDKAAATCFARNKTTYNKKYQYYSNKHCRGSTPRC

Row | IC50 [µM] | SMILES
1 | 0.662 | O=C(O)CC[C@@H](Cc1ccc(OCc2ccccc2)cc1)NC(=O)CCCCCc1ccccc1 [hnpsPLA2-IIa Inhibitor, 2a]
2 | 2.48 | O=C(O)CC[C@@H](Cc1ccc(OCc2ccccc2)cc1)NC(=O)CCCCCCCc1ccccc1 [hnpsPLA2-IIa Inhibitor, 2c]
3 | 1.82 | COc1ccccc1CCCCCCC(=O)N[C@@H](CCC(=O)O)Cc1ccc(OCc2ccccc2)cc1 [hnpsPLA2-IIa Inhibitor, 2d]
4 | 4.05 | CC(=O)Nc1ccccc1CCCCCCC(=O)N[C@@H](CCC(=O)O)Cc1ccc(OCc2ccccc2)cc1 [hnpsPLA2-IIa Inhibitor, 2e]
5 | 0.761 | O=C(O)CC[C@@H](Cc1ccc(OCc2ccccc2)cc1)NC(=O)CCCCCCc1cccnc1 [hnpsPLA2-IIa Inhibitor, 2f]
6 | 0.536 | O=C(O)CC[C@@H](Cc1ccc(OCc2ccccc2)cc1)NC(=O)CCCCCCc1cccc([N+](=O)[O-])c1 [hnpsPLA2-IIa Inhibitor, 2g]
7 | 0.214 | O=C(O)CC[C@@H](Cc1ccc(Oc2ccccn2)cc1)NC(=O)CCCCCCc1ccccc1 [hnpsPLA2-IIa Inhibitor, 2h]
8 | 0.247 | O=C(O)CC[C@@H](Cc1ccc(Oc2cccnc2)cc1)NC(=O)CCCCCCc1ccccc1 [hnpsPLA2-IIa Inhibitor, 2i]
9 | 0.067 | O=C(O)CC[C@@H](Cc1ccc(OCC2CCCCC2)cc1)NC(=O)CCCCCCc1ccccc1 [hnpsPLA2-IIa Inhibitor, 2j]
10 | 0.057 | O=C(O)CC[C@@H](Cc1ccc(OCC2CCCC2)cc1)NC(=O)CCCCCCc1ccccc1 [hnpsPLA2-IIa Inhibitor, 2k]
11 | 0.019 | O=C(O)CC[C@@H](Cc1ccc(OCc2cccc3ccccc23)cc1)NC(=O)CCCCCCc1ccccc1 [hnpsPLA2-IIa Inhibitor, 2l]
12 | 0.039 | O=C(O)CC[C@@H](Cc1ccc(OCc2ccc3ccccc3c2)cc1)NC(=O)CCCCCCc1ccccc1 [hnpsPLA2-IIa Inhibitor, 2m]
13 | 0.116 | O=C(O)CC[C@@H](Cc1ccc(OC/C=C/c2ccccc2)cc1)NC(=O)CCCCCCc1ccccc1 [hnpsPLA2-IIa Inhibitor, 2n]
14 | 0.17 | CC(C)COc1ccc(C[C@H](CCC(=O)O)NC(=O)CCCCCCc2ccccc2)cc1 [hnpsPLA2-IIa Inhibitor, 2o]
15 | 0.086 | CCCCCCCOc1ccc(C[C@H](CCC(=O)O)NC(=O)CCCCCCc2ccccc2)cc1 [hnpsPLA2-IIa Inhibitor, 2p]
16 | 2.57 | O=C(O)CC[C@@H](Cc1ccc(O)cc1)NC(=O)CCCCCCc1ccccc1 [hnpsPLA2-IIa Inhibitor, 2q]
